Common to all, as to format: functional
What all share (details): for zone of inhibition at 3000 µg/mL: read-out: DIZ

The subject of test [1] is Candida albicans. In words: Antifungal activity against Candida albicans RSKK 628 at 3000 ug/ml after 18 to 24 hr by disk diffusion method.
The test system of test [2] is Staphylococcus aureus. The experiment in a line: Antibacterial activity against Staphylococcus aureus ATCC 250 at 3000 ug/ml after 18 to 24 hr by disk diffusion method. (Agar diffusion results depend on both activity and mobility in agar.)
Test [3] deals with Escherichia coli. The experiment in a line: Antibacterial activity against Escherichia coli RSKK 313 at 3000 ug/ml after 18 to 24 hr by disk diffusion method.

Active and inactive are the calls of the source. No cut-off for these calls is given here.

As for `O=C(/C=C/c1ccccc1)N(Cc1ccc(Cl)cc1)Cc1cccc(-c2cc(=O)c3ccccc3o2)c1`, the results for the zone of inhibition at 3000 µg/mL in test [1] and in test [3] were 13 mm and 12 mm, respectively. Moreover, the “diameter of the inhibition zone (DIZ)” value in test [2] is “inactive”.
Take `O=c1cc(-c2cccc(CNCc3ccc(Cl)c(Cl)c3)c2)oc2ccccc12`: the results for the zone of inhibition at 3000 µg/mL in test [1], in test [2] and in test [3] were 10 mm, 16 mm and 12 mm, respectively.
Turning to `CC1(C)S[C@@H]2[C@H](NC(=O)[C@H](N)c3ccccc3)C(=O)N2[C@H]1C(=O)O` [AMPICILLIN], the zone of inhibition at 3000 µg/mL in test [2] is 30 mm; in test [3] it was 20 mm.
In the case of `O=C(/C=C/c1ccccc1)N(Cc1cccc(-c2cc(=O)c3ccccc3o2)c1)Cc1ccc(Cl)cc1Cl`, the zone of inhibition at 3000 µg/mL in test [1] is 15 mm. The “diameter of the inhibition zone (DIZ)” value in test [2] and in test [3] was “inactive” throughout.
Turning to `O=C(/C=C/c1ccccc1)N(Cc1cccc(-c2cc(=O)c3ccccc3o2)c1)Cc1ccc(Cl)c(Cl)c1`, the zone of inhibition at 3000 µg/mL in test [1] stood at 15 mm. Further, the “diameter of the inhibition zone (DIZ)” value in test [2] and in test [3] was “inactive” throughout.
As for `Clc1ccc(COC(Cn2ccnc2)c2ccc(Cl)cc2Cl)c(Cl)c1` (stereo not drawn) [MICONAZOLE], in test [1], the zone of inhibition at 3000 µg/mL was determined as 35 mm.
For `O=c1cc(-c2cccc(CNCc3ccc(Cl)cc3Cl)c2)oc2ccccc12`, the “diameter of the inhibition zone (DIZ)” value in test [1] and in test [3] was “inactive” throughout. Moreover, in test [2], the zone of inhibition at 3000 µg/mL was determined as 10 mm.
In the case of `O=c1cc(-c2cccc(CNCc3ccc(Cl)cc3)c2)oc2ccccc12`, the zone of inhibition at 3000 µg/mL was 15 mm in test [1] and 25 mm in test [2]. Moreover, in test [3], the “diameter of the inhibition zone (DIZ)” value is “inactive”.
With `O=C(/C=C/c1ccccc1)N(Cc1ccccc1)Cc1cccc(-c2cc(=O)c3ccccc3o2)c1`, the “diameter of the inhibition zone (DIZ)” value in test [1] and in test [3] was “inactive” throughout. For the same compound, in test [2], the zone of inhibition at 3000 µg/mL was found to be 10 mm.
On to `O=c1cc(-c2cccc(CNCc3ccccc3)c2)oc2ccccc12`, for which the figures for the zone of inhibition at 3000 µg/mL in test [1], in test [2] and in test [3] were 25 mm, 16 mm and 10 mm, respectively.
As for `O=c1cc(-c2cccc(CNCc3ccc(F)cc3)c2)oc2ccccc12`, the zone of inhibition at 3000 µg/mL in test [1] worked out at 20 mm; in test [2], 15 mm. Besides, in test [3], the “diameter of the inhibition zone (DIZ)” value is “inactive”.
As to `O=C(/C=C/c1ccccc1)N(Cc1ccc(F)cc1)Cc1cccc(-c2cc(=O)c3ccccc3o2)c1`, the “diameter of the inhibition zone (DIZ)” value in test [1], in test [2] and in test [3] was “inactive” throughout.

The values above are taken from ChEMBL document CHEMBL3046593, “Studies on the synthesis of some new substituted benzylamino and phenyl-acrylamido-methyl flavone derivatives” (2007).
